Each structure is given as a SMILES string.

Data on four molecules can be found in article PMC8125568 (2021).

Assay [1] concerns AU-RNA (poly A—poly U) (RNA, polymer) A/U. In words: UV thermal denaturation, 260 nm. The conditions noted are these: Na+ (sodium cacodylate, I = 0.05 M), error ± 0.5, per base.
The test system is the same in assay [2]. In words: circular dichroism titration. To be noted: Na+ (sodium cacodylate, I = 0.05 M); pH 7.0, room temperature; RNA 20 µM; CD spectrum somewhat changed. For orientation: Circular dichroism is widely used to follow secondary structure.
In assay [3] the test system is AT-DNA (poly dAdT—poly dAdT) (DNA, polymer) AT. Put plainly: fluorimetric titration, Scatchard. To be noted: Na+ (sodium cacodylate, I = 0.05 M); pH 7.0, 25 °C, 0.04% DMSO; n fixed 0.2; polynucleotide as phosphates; per base.
For assay [4], the system named is AU-RNA (poly A—poly U) (RNA, polymer) A/U. Put plainly: fluorimetric titration, Scatchard. To be noted: Na+ (sodium cacodylate, I = 0.05 M); pH 7.0, 25 °C, 0.04% DMSO; n fixed 0.2; polynucleotide as phosphates; per base.

Take `Cc1sc(C(=O)NCCN)cc1C1=C(c2cc(C(=O)NCCN)sc2C)CCC1`: the “∆Tm” value in assay [1] (pH 7.0, r = 0.3) was −0.7 °C.

In the case of `CC12SC(C(=O)NCCN)=CC1=C1CCCC1=C1C=C(C(=O)NCCN)SC12C` (stereo not drawn), in assay [2], the binding result is “weak”.

For `CC12SC(C(=O)NCCNC(=O)c3ccc4ccc5cccc6ccc3c4c56)=CC1=C1CCCC1=C1C=C(C(=O)NCCNC(=O)c3ccc4ccc5cccc6ccc3c4c56)SC12C` (stereo not drawn), the “∆Tm” value in assay [1] (pH 7.0, 4% DMSO, r = 0.3, no stabilisation) was found to be 0.3 °C.

For the molecule `Cc1sc(C(=O)NCCNC(=O)c2ccc3ccc4cccc5ccc2c3c45)cc1C1=C(c2cc(C(=O)NCCNC(=O)c3ccc4ccc5cccc6ccc3c4c56)sc2C)CCC1`, the results for the logKs in assay [3] and in assay [4] were 6.3 log M^-1 and 6.1 log M^-1, respectively. The “∆Tm” value in assay [1] (pH 7.0, 0.5% DMSO, r = 0.3, RNA 20 µM, two transitions (first/second)) was 0/23.4 °C.
